Laboratory results from patent publication US11945813B2, “5-substituted 4-amino-1H-benzo[c][1,2,6]thiadiazine 2,2-dioxides and formulations and uses thereof” (Firmenich Incorporated, priority 2018, dated 2024).

Biological target: T1, T1R2/T1R3 taste receptor (Homo sapiens, UniProt Q8TE23)
T1 sequence (Q8TE23 20-839): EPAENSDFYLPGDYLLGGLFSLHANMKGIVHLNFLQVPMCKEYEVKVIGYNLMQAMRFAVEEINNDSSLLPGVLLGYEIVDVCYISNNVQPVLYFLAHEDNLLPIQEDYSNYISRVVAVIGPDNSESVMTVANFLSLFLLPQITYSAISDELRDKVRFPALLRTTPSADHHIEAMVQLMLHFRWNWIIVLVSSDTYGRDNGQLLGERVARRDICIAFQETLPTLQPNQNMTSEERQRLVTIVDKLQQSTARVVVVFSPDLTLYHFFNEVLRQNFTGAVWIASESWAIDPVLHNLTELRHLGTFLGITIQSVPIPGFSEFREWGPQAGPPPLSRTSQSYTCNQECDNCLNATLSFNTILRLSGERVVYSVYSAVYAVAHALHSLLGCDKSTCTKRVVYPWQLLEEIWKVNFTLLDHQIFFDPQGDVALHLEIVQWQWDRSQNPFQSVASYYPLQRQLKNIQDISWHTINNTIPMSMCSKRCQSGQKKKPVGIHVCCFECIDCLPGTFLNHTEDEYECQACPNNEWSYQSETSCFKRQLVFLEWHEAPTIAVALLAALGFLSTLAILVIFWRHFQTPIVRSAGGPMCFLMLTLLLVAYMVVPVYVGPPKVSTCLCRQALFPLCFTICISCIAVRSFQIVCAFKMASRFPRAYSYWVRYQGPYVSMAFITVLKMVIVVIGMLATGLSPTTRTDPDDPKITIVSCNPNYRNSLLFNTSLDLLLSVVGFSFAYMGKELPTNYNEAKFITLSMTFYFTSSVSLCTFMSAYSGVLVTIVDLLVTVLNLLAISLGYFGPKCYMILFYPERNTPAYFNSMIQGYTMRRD
T1 sequence (Q7RTX0 21-852 partner): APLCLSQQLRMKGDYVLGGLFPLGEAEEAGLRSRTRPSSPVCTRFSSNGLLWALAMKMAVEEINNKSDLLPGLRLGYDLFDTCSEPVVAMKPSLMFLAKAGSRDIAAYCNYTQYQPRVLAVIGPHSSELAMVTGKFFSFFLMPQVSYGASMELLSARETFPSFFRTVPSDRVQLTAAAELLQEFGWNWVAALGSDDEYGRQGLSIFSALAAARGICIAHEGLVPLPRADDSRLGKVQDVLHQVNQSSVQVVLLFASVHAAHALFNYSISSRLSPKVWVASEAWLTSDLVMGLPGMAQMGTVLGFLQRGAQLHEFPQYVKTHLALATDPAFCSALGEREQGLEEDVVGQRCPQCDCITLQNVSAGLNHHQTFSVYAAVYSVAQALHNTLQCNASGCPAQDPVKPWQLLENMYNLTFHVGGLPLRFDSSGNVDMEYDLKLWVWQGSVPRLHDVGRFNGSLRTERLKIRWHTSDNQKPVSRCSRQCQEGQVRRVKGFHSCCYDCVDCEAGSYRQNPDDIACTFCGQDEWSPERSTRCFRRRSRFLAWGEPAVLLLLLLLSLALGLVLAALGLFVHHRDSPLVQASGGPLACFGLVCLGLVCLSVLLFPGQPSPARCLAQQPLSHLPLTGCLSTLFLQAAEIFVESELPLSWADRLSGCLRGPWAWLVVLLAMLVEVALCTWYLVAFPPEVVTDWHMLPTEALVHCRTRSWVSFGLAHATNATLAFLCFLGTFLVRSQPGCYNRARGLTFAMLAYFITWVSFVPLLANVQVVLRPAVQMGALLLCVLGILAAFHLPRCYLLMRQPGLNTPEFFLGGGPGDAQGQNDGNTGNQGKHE
Assay: Receptor-based assay: sweetener EC50 alone and with test compound (enhancement ratio)
Format: cell-based
Settings: for Sucralose Enhancement EC50 Ratio: sweetener sucralose; for Sucrose Enhancement EC50 Ratio: sweetener sucrose; for Fructose Enhancement EC50 Ratio: sweetener fructose
Description: Potencies (EC50 values) for the sweeteners sucrose, sucralose, and fructose were measured against the T1R2/T1R3 taste receptor. EC50 was determined using the sweetener alone and in the presence of 3 μM, 10 μM, or 50 μM of test compound. EC50 ratios were calculated by the ratio of potency with and without the test compound. An “A” value indicates an enhancement ratio of greater than 20. A “B” value indicates an enhancement ratio from 10 to 20. A “C” value indicates an enhancement ratio greater than 1 and less than 10.

SMILES | Sucralose Enhancement EC50 Ratio (10 μM test compound) | Sucralose Enhancement EC50 Ratio (50 μM test compound) | Sucrose Enhancement EC50 Ratio (3 μM test compound) | Sucrose Enhancement EC50 Ratio (10 μM test compound) | Sucrose Enhancement EC50 Ratio (50 μM test compound) | Fructose Enhancement EC50 Ratio (10 μM test compound) | Fructose Enhancement EC50 Ratio (50 μM test compound)
Cc1cnc(NC(C)(C)COc2cccc3c2C(N)=NS(=O)(=O)N3)nc1 [Compound 100, 4-amino-5-(2-methyl-2-((5-methylpyrimidin-2-yl)amino)propoxy)-1H-benzo[c][1,2,6]thiadiazine 2,2-dioxide] | A (An “A” value indicates an enhancement ratio of greater than 20) | A (An “A” value indicates an enhancement ratio of greater than 20) | C (A “C” value indicates an enhancement ratio greater than 1 and less than 10) | C (A “C” value indicates an enhancement ratio greater than 1 and less than 10) | C (A “C” value indicates an enhancement ratio greater than 1 and less than 10) | – | –
CC(C)(COc1cccc2c1C(N)=NS(=O)(=O)N2)Nc1ccccn1 [Compound 101] | A (An “A” value indicates an enhancement ratio of greater than 20) | A (An “A” value indicates an enhancement ratio of greater than 20) | C (A “C” value indicates an enhancement ratio greater than 1 and less than 10) | C (A “C” value indicates an enhancement ratio greater than 1 and less than 10) | C (A “C” value indicates an enhancement ratio greater than 1 and less than 10) | C (A “C” value indicates an enhancement ratio greater than 1 and less than 10) | –
CC(C)(COc1cccc2c1C(N)=NS(=O)(=O)N2)Nc1ncccn1 [Compound 102] | A (An “A” value indicates an enhancement ratio of greater than 20) | A (An “A” value indicates an enhancement ratio of greater than 20) | – | C (A “C” value indicates an enhancement ratio greater than 1 and less than 10) | B (A “B” value indicates an enhancement ratio from 10 to 20) | C (A “C” value indicates an enhancement ratio greater than 1 and less than 10) | –
Cc1cc(C)nc(NC(C)(C)COc2cccc3c2C(N)=NS(=O)(=O)N3)n1 [Compound 103] | A (An “A” value indicates an enhancement ratio of greater than 20) | A (An “A” value indicates an enhancement ratio of greater than 20) | C (A “C” value indicates an enhancement ratio greater than 1 and less than 10) | C (A “C” value indicates an enhancement ratio greater than 1 and less than 10) | C (A “C” value indicates an enhancement ratio greater than 1 and less than 10) | C (A “C” value indicates an enhancement ratio greater than 1 and less than 10) | C (A “C” value indicates an enhancement ratio greater than 1 and less than 10)
NC1=NS(=O)(=O)Nc2cccc(OC[C@H]3CCCN(c4ccccn4)C3)c21 [Compound 104] | A (An “A” value indicates an enhancement ratio of greater than 20) | A (An “A” value indicates an enhancement ratio of greater than 20) | C (A “C” value indicates an enhancement ratio greater than 1 and less than 10) | C (A “C” value indicates an enhancement ratio greater than 1 and less than 10) | C (A “C” value indicates an enhancement ratio greater than 1 and less than 10) | C (A “C” value indicates an enhancement ratio greater than 1 and less than 10) | –
NC1=NS(=O)(=O)Nc2cccc(OC[C@H]3CCCN(c4ncccn4)C3)c21 [Compound 105] | A (An “A” value indicates an enhancement ratio of greater than 20) | A (An “A” value indicates an enhancement ratio of greater than 20) | C (A “C” value indicates an enhancement ratio greater than 1 and less than 10) | C (A “C” value indicates an enhancement ratio greater than 1 and less than 10) | C (A “C” value indicates an enhancement ratio greater than 1 and less than 10) | C (A “C” value indicates an enhancement ratio greater than 1 and less than 10) | C (A “C” value indicates an enhancement ratio greater than 1 and less than 10)
CC(C)(COc1cccc2c1C(N)=NS(=O)(=O)N2)Nc1ccnc(Cl)n1 [Compound 201, 4-amino-5-(2-((2-chloropyrimidin-4-yl)amino)-2-methylpropoxy)-1H-benzo[c][1,2,6]thiadiazine 2,2-dioxide] | – | A (An “A” value indicates an enhancement ratio of greater than 20) | C (A “C” value indicates an enhancement ratio greater than 1 and less than 10) | C (A “C” value indicates an enhancement ratio greater than 1 and less than 10) | C (A “C” value indicates an enhancement ratio greater than 1 and less than 10) | C (A “C” value indicates an enhancement ratio greater than 1 and less than 10) | –
CC(C)(COc1cccc2c1C(N)=NS(=O)(=O)N2)Nc1ccnc(-n2cccn2)n1 [Compound 202] | – | – | – | – | C (A “C” value indicates an enhancement ratio greater than 1 and less than 10) | – | –
CC(C)(COc1cccc2c1C(N)=NS(=O)(=O)N2)Nc1ccnc(N2CCCC2)n1 [Compound 204] | A (An “A” value indicates an enhancement ratio of greater than 20) | A (An “A” value indicates an enhancement ratio of greater than 20) | C (A “C” value indicates an enhancement ratio greater than 1 and less than 10) | C (A “C” value indicates an enhancement ratio greater than 1 and less than 10) | C (A “C” value indicates an enhancement ratio greater than 1 and less than 10) | – | C (A “C” value indicates an enhancement ratio greater than 1 and less than 10)
CC(C)(COc1cccc2c1C(N)=NS(=O)(=O)N2)Nc1ccnc(N2CCOCC2)n1 [Compound 205] | B (A “B” value indicates an enhancement ratio from 10 to 20) | A (An “A” value indicates an enhancement ratio of greater than 20) | C (A “C” value indicates an enhancement ratio greater than 1 and less than 10) | C (A “C” value indicates an enhancement ratio greater than 1 and less than 10) | C (A “C” value indicates an enhancement ratio greater than 1 and less than 10) | – | C (A “C” value indicates an enhancement ratio greater than 1 and less than 10)
COCCNc1nccc(NC(C)(C)COc2cccc3c2C(N)=NS(=O)(=O)N3)n1 [Compound 206] | B (A “B” value indicates an enhancement ratio from 10 to 20) | A (An “A” value indicates an enhancement ratio of greater than 20) | C (A “C” value indicates an enhancement ratio greater than 1 and less than 10) | C (A “C” value indicates an enhancement ratio greater than 1 and less than 10) | C (A “C” value indicates an enhancement ratio greater than 1 and less than 10) | C (A “C” value indicates an enhancement ratio greater than 1 and less than 10) | C (A “C” value indicates an enhancement ratio greater than 1 and less than 10)
